Test results taken from the NIST ThermoML archive (doi:10.1021/acs.jced.6b00526).
± gives the expanded uncertainty stated by the source.

Assay: xn = mol fraction of the nth substance listed
Details: 100 kPa, Liquid; for mass density: Vibrating tube method; for viscosity: Falling or rolling sphere viscometry

OCCCO [propan-1,3-diol] + O
mass density (288.15 K, x2 = 0): 1056.2 ± 4.3 kg/m3
mass density (288.15 K, x2 = 0.1625): 1056.2 ± 4.3 kg/m3
mass density (288.15 K, x2 = 0.1737): 1056.2 ± 4.3 kg/m3
mass density (288.15 K, x2 = 0.2386): 1056.4 ± 4.3 kg/m3
mass density (288.15 K, x2 = 0.2519): 1056.5 ± 4.3 kg/m3
mass density (288.15 K, x2 = 0.3216): 1056.6 ± 4.3 kg/m3
mass density (288.15 K, x2 = 0.3669): 1056.4 ± 4.2 kg/m3
mass density (288.15 K, x2 = 0.4238): 1056 ± 4.2 kg/m3
mass density (288.15 K, x2 = 0.4553): 1055.6 ± 4.2 kg/m3
mass density (288.15 K, x2 = 0.5075): 1054.7 ± 4.2 kg/m3
mass density (288.15 K, x2 = 0.5501): 1053.7 ± 4.2 kg/m3
mass density (288.15 K, x2 = 0.6009): 1052.1 ± 4.2 kg/m3
mass density (288.15 K, x2 = 0.653): 1049.9 ± 4.2 kg/m3
mass density (288.15 K, x2 = 0.7146): 1046.3 ± 4.2 kg/m3
mass density (288.15 K, x2 = 0.7532): 1043.2 ± 4.2 kg/m3
mass density (288.15 K, x2 = 0.804): 1038.3 ± 4.2 kg/m3
mass density (288.15 K, x2 = 0.8508): 1032.1 ± 4.1 kg/m3
mass density (288.15 K, x2 = 0.9021): 1023.5 ± 4.1 kg/m3
viscosity (293.15 K, x2 = 0): 51.55 ± 8.3 mPa·s
viscosity (293.15 K, x2 = 0.0749): 46.34 ± 7.4 mPa·s
viscosity (293.15 K, x2 = 0.1625): 40.76 ± 6.5 mPa·s
viscosity (293.15 K, x2 = 0.239): 35.86 ± 5.8 mPa·s
viscosity (293.15 K, x2 = 0.3361): 29.72 ± 4.8 mPa·s
viscosity (293.15 K, x2 = 0.4223): 24.46 ± 3.9 mPa·s
viscosity (293.15 K, x2 = 0.5134): 19.25 ± 3.1 mPa·s
viscosity (293.15 K, x2 = 0.6309): 13.16 ± 2.1 mPa·s
viscosity (293.15 K, x2 = 0.7446): 7.99 ± 1.3 mPa·s
viscosity (293.15 K, x2 = 0.872): 3.72 ± 0.6 mPa·s
mass density (293.15 K, x2 = 0): 1053.2 ± 4.3 kg/m3
mass density (293.15 K, x2 = 0.1625): 1053.1 ± 4.3 kg/m3
mass density (293.15 K, x2 = 0.1737): 1053.1 ± 4.3 kg/m3
mass density (293.15 K, x2 = 0.2386): 1053.3 ± 4.2 kg/m3
mass density (293.15 K, x2 = 0.2519): 1053.4 ± 4.2 kg/m3
mass density (293.15 K, x2 = 0.3216): 1053.5 ± 4.2 kg/m3
mass density (293.15 K, x2 = 0.3669): 1053.3 ± 4.2 kg/m3
mass density (293.15 K, x2 = 0.4238): 1053 ± 4.2 kg/m3
mass density (293.15 K, x2 = 0.4553): 1052.6 ± 4.2 kg/m3
mass density (293.15 K, x2 = 0.5075): 1051.8 ± 4.2 kg/m3
mass density (293.15 K, x2 = 0.5501): 1050.8 ± 4.2 kg/m3
mass density (293.15 K, x2 = 0.6009): 1049.2 ± 4.2 kg/m3
mass density (293.15 K, x2 = 0.653): 1047.1 ± 4.2 kg/m3
mass density (293.15 K, x2 = 0.7146): 1043.5 ± 4.2 kg/m3
mass density (293.15 K, x2 = 0.7532): 1040.5 ± 4.2 kg/m3
mass density (293.15 K, x2 = 0.804): 1035.5 ± 4.1 kg/m3
mass density (293.15 K, x2 = 0.8508): 1029.6 ± 4.1 kg/m3
mass density (293.15 K, x2 = 0.9021): 1021.3 ± 4.1 kg/m3
viscosity (298.15 K, x2 = 0): 40.8 ± 6.5 mPa·s
viscosity (298.15 K, x2 = 0.0749): 36.93 ± 5.9 mPa·s
viscosity (298.15 K, x2 = 0.1625): 32.58 ± 5.2 mPa·s
viscosity (298.15 K, x2 = 0.239): 29.01 ± 4.7 mPa·s
viscosity (298.15 K, x2 = 0.3361): 24.27 ± 3.9 mPa·s
viscosity (298.15 K, x2 = 0.4223): 20.06 ± 3.2 mPa·s
viscosity (298.15 K, x2 = 0.5134): 15.64 ± 2.5 mPa·s
viscosity (298.15 K, x2 = 0.6309): 10.59 ± 1.7 mPa·s
viscosity (298.15 K, x2 = 0.7446): 6.43 ± 1 mPa·s
viscosity (298.15 K, x2 = 0.872): 3.13 ± 0.5 mPa·s
mass density (298.15 K, x2 = 0): 1049.9 ± 4.3 kg/m3
mass density (298.15 K, x2 = 0.1625): 1049.7 ± 4.2 kg/m3
mass density (298.15 K, x2 = 0.1737): 1049.7 ± 4.2 kg/m3
mass density (298.15 K, x2 = 0.2386): 1049.9 ± 4.2 kg/m3
mass density (298.15 K, x2 = 0.2519): 1049.9 ± 4.2 kg/m3
mass density (298.15 K, x2 = 0.3216): 1050.1 ± 4.2 kg/m3
mass density (298.15 K, x2 = 0.3669): 1050 ± 4.2 kg/m3
mass density (298.15 K, x2 = 0.4238): 1049.6 ± 4.2 kg/m3
mass density (298.15 K, x2 = 0.4553): 1049.3 ± 4.2 kg/m3
mass density (298.15 K, x2 = 0.5075): 1048.5 ± 4.2 kg/m3
mass density (298.15 K, x2 = 0.5501): 1047.6 ± 4.2 kg/m3
mass density (298.15 K, x2 = 0.6009): 1046.1 ± 4.2 kg/m3
mass density (298.15 K, x2 = 0.653): 1043.9 ± 4.2 kg/m3
mass density (298.15 K, x2 = 0.7146): 1040.4 ± 4.2 kg/m3
mass density (298.15 K, x2 = 0.7532): 1037.4 ± 4.2 kg/m3
mass density (298.15 K, x2 = 0.804): 1032.6 ± 4.1 kg/m3
mass density (298.15 K, x2 = 0.8508): 1026.9 ± 4.1 kg/m3
mass density (298.15 K, x2 = 0.9021): 1018.9 ± 4.1 kg/m3
viscosity (303.15 K, x2 = 0): 32.74 ± 5.3 mPa·s
viscosity (303.15 K, x2 = 0.0749): 29.67 ± 4.8 mPa·s
viscosity (303.15 K, x2 = 0.1625): 26.38 ± 4.2 mPa·s
viscosity (303.15 K, x2 = 0.239): 23.45 ± 3.8 mPa·s
viscosity (303.15 K, x2 = 0.3361): 19.97 ± 3.2 mPa·s
viscosity (303.15 K, x2 = 0.4223): 16.66 ± 2.7 mPa·s
viscosity (303.15 K, x2 = 0.5134): 13.18 ± 2.1 mPa·s
viscosity (303.15 K, x2 = 0.6309): 8.95 ± 1.4 mPa·s
viscosity (303.15 K, x2 = 0.7446): 5.46 ± 0.88 mPa·s
viscosity (303.15 K, x2 = 0.872): 2.78 ± 0.44 mPa·s
mass density (303.15 K, x2 = 0): 1046.7 ± 4.3 kg/m3
mass density (303.15 K, x2 = 0.1625): 1046.4 ± 4.2 kg/m3
mass density (303.15 K, x2 = 0.1737): 1046.4 ± 4.2 kg/m3
mass density (303.15 K, x2 = 0.2386): 1046.6 ± 4.2 kg/m3
mass density (303.15 K, x2 = 0.2519): 1046.6 ± 4.2 kg/m3
mass density (303.15 K, x2 = 0.3216): 1046.8 ± 4.2 kg/m3
mass density (303.15 K, x2 = 0.3669): 1046.7 ± 4.2 kg/m3
mass density (303.15 K, x2 = 0.4238): 1046.4 ± 4.2 kg/m3
mass density (303.15 K, x2 = 0.4553): 1046.1 ± 4.2 kg/m3
mass density (303.15 K, x2 = 0.5075): 1045.3 ± 4.2 kg/m3
mass density (303.15 K, x2 = 0.5501): 1044.4 ± 4.2 kg/m3
mass density (303.15 K, x2 = 0.6009): 1042.9 ± 4.2 kg/m3
mass density (303.15 K, x2 = 0.653): 1040.8 ± 4.2 kg/m3
mass density (303.15 K, x2 = 0.7146): 1037.2 ± 4.2 kg/m3
mass density (303.15 K, x2 = 0.7532): 1034.3 ± 4.1 kg/m3
mass density (303.15 K, x2 = 0.804): 1029.6 ± 4.1 kg/m3
mass density (303.15 K, x2 = 0.8508): 1024.1 ± 4.1 kg/m3
mass density (303.15 K, x2 = 0.9021): 1016.6 ± 4.1 kg/m3
mass density (308.15 K, x2 = 0): 1043.5 ± 4.3 kg/m3
mass density (308.15 K, x2 = 0.1625): 1043.1 ± 4.2 kg/m3
mass density (308.15 K, x2 = 0.1737): 1043.1 ± 4.2 kg/m3
mass density (308.15 K, x2 = 0.2386): 1043.2 ± 4.2 kg/m3
mass density (308.15 K, x2 = 0.2519): 1043.3 ± 4.2 kg/m3
mass density (308.15 K, x2 = 0.3216): 1043.5 ± 4.2 kg/m3
mass density (308.15 K, x2 = 0.3669): 1043.3 ± 4.2 kg/m3
mass density (308.15 K, x2 = 0.4238): 1043.1 ± 4.2 kg/m3
mass density (308.15 K, x2 = 0.4553): 1042.8 ± 4.2 kg/m3
mass density (308.15 K, x2 = 0.5075): 1042.1 ± 4.2 kg/m3
mass density (308.15 K, x2 = 0.5501): 1041.2 ± 4.2 kg/m3
mass density (308.15 K, x2 = 0.6009): 1039.7 ± 4.2 kg/m3
mass density (308.15 K, x2 = 0.653): 1037.6 ± 4.2 kg/m3
mass density (308.15 K, x2 = 0.7146): 1034 ± 4.1 kg/m3
mass density (308.15 K, x2 = 0.7532): 1031.1 ± 4.1 kg/m3
mass density (308.15 K, x2 = 0.804): 1026.6 ± 4.1 kg/m3
mass density (308.15 K, x2 = 0.8508): 1021.3 ± 4.1 kg/m3
mass density (308.15 K, x2 = 0.9021): 1014 ± 4.1 kg/m3
mass density (313.15 K, x2 = 0): 1040.4 ± 4.2 kg/m3
mass density (313.15 K, x2 = 0.1625): 1039.9 ± 4.2 kg/m3
mass density (313.15 K, x2 = 0.1737): 1040 ± 4.2 kg/m3
mass density (313.15 K, x2 = 0.2386): 1040.1 ± 4.2 kg/m3
mass density (313.15 K, x2 = 0.2519): 1040.1 ± 4.2 kg/m3
mass density (313.15 K, x2 = 0.3216): 1040.2 ± 4.2 kg/m3
mass density (313.15 K, x2 = 0.3669): 1040.1 ± 4.2 kg/m3
mass density (313.15 K, x2 = 0.4238): 1039.9 ± 4.2 kg/m3
mass density (313.15 K, x2 = 0.4553): 1039.6 ± 4.2 kg/m3
mass density (313.15 K, x2 = 0.5075): 1038.9 ± 4.2 kg/m3
mass density (313.15 K, x2 = 0.5501): 1038 ± 4.2 kg/m3
mass density (313.15 K, x2 = 0.6009): 1036.5 ± 4.2 kg/m3
mass density (313.15 K, x2 = 0.653): 1034.4 ± 4.1 kg/m3
mass density (313.15 K, x2 = 0.7146): 1030.9 ± 4.1 kg/m3
mass density (313.15 K, x2 = 0.7532): 1028.1 ± 4.1 kg/m3
mass density (313.15 K, x2 = 0.804): 1023.5 ± 4.1 kg/m3
mass density (313.15 K, x2 = 0.8508): 1018.4 ± 4.1 kg/m3
mass density (313.15 K, x2 = 0.9021): 1011.4 ± 4 kg/m3
mass density (318.15 K, x2 = 0): 1037.9 ± 4.2 kg/m3
mass density (318.15 K, x2 = 0.1625): 1037.4 ± 4.2 kg/m3
mass density (318.15 K, x2 = 0.1737): 1037.4 ± 4.2 kg/m3
mass density (318.15 K, x2 = 0.2386): 1037.5 ± 4.2 kg/m3
mass density (318.15 K, x2 = 0.2519): 1037.5 ± 4.2 kg/m3
mass density (318.15 K, x2 = 0.3216): 1037.6 ± 4.2 kg/m3
mass density (318.15 K, x2 = 0.3669): 1037.5 ± 4.2 kg/m3
mass density (318.15 K, x2 = 0.4238): 1037.3 ± 4.2 kg/m3
mass density (318.15 K, x2 = 0.4553): 1037 ± 4.2 kg/m3
mass density (318.15 K, x2 = 0.5075): 1036.2 ± 4.2 kg/m3
mass density (318.15 K, x2 = 0.5501): 1035.4 ± 4.1 kg/m3
mass density (318.15 K, x2 = 0.6009): 1033.9 ± 4.1 kg/m3
mass density (318.15 K, x2 = 0.653): 1031.8 ± 4.1 kg/m3
mass density (318.15 K, x2 = 0.7146): 1028.4 ± 4.1 kg/m3
mass density (318.15 K, x2 = 0.7532): 1025.5 ± 4.1 kg/m3
mass density (318.15 K, x2 = 0.804): 1021.1 ± 4.1 kg/m3
mass density (318.15 K, x2 = 0.8508): 1016.1 ± 4.1 kg/m3
mass density (318.15 K, x2 = 0.9021): 1009.2 ± 4 kg/m3
